Data from PubChem BioAssay (NCI).
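Results reflect a 48-hour exposure of cells in 96-well plates to compound at five concentrations. TGI: total growth inhibition.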

Tests used:
Assay in all cases: NCI-60 cell line screen, 48 h
[1] = system: HCT-15 colon
[2] = system: TK-10 renal
[3] = system: SNB-19 CNS
[4] = system: LXFL 529 NSCLC
[5] = system: SF-268 CNS
[6] = system: CCRF-CEM leukemia
[7] = system: OVCAR-4 ovarian
[8] = system: COLO 205 colon
[9] = system: HT29 colon
[10] = system: SNB-75 CNS
[11] = system: NCI-H23 lung
[12] = system: NCI-H226 lung
[13] = system: KM12 colon
[14] = system: UACC-257 melanoma
[15] = system: HOP-18 NSCLC
[16] = system: KM20L2 colon
[17] = system: MALME-3M melanoma
[18] = system: 786-0 renal
[19] = system: CAKI-1 renal
[20] = system: EKVX NSCLC
[21] = system: XF 498 CNS
[22] = system: SN12C renal
[23] = system: SNB-78 CNS
[24] = system: SK-MEL-28 melanoma
[25] = system: RXF-631 renal
[26] = system: HL-60(TB) leukemia
[27] = system: OVCAR-3 ovarian
[28] = system: SK-OV-3 ovarian
[29] = system: RPMI-8226 leukemia
[30] = system: OVCAR-5 ovarian
[31] = system: RXF 393 renal
[32] = system: DMS 273 small cell lung
[33] = system: SF-295 CNS
[34] = system: HCT-116 colon
[35] = system: K-562 leukemia
[36] = system: DLD-1 colon
[37] = system: OVCAR-8 ovarian
[38] = system: A498 renal
[39] = system: NCI-H522 lung
[40] = system: M14 melanoma
[41] = system: ACHN renal
[42] = system: SK-MEL-5 melanoma
[43] = system: HOP-92 NSCLC
[44] = system: HCC-2998 colon
[45] = system: IGROV1 ovarian
[46] = system: UACC-62 melanoma
[47] = system: LOX IMVI melanoma
[48] = system: NCI-H460 lung
[49] = system: U251 CNS
[50] = system: A549 NSCLC
[51] = system: DMS 114 small cell lung
[52] = system: SF-539 CNS
[53] = system: HOP-62 NSCLC
[54] = system: UO-31 renal
[55] = system: SK-MEL-2 melanoma
[56] = system: SW-620 colon
[57] = system: SR leukemia
[58] = system: MOLT-4 leukemia
[59] = system: M19-MEL melanoma
[60] = system: MDA-MB-231 breast
[61] = system: BT-549 breast
[62] = system: PC-3 prostate
[63] = system: DU-145 prostate
[64] = system: MDA-MB-435
[65] = system: NCI/ADR-RES ovarian
[66] = system: HS 578T breast
[67] = system: MCF7 breast
[68] = system: MDA-N
[69] = system: T-47D breast

Cn1c2c([N+](=O)[O-])[se]nc2c(=O)n1-c1ccc([N+](=O)[O-])cc1
TGI [1]: 2.73 µM
TGI [2]: 16.2 µM
TGI [3]: 18.4 µM
TGI [4]: 2.5 µM
TGI [5]: 4.77 µM
TGI [6]: > 100 µM
TGI [7]: 0.909 µM
TGI [8]: 4.23 µM
TGI [9]: 8.12 µM
TGI [10]: 7.63 µM
TGI [11]: 4.49 µM
TGI [12]: 7.91 µM
TGI [13]: 15.7 µM
TGI [14]: 4.17 µM
TGI [15]: 5.17 µM
TGI [16]: 18.3 µM
TGI [17]: 3.23 µM
TGI [18]: 6.5 µM
TGI [19]: 4.03 µM
TGI [20]: 5.23 µM
TGI [21]: 3.71 µM
TGI [22]: 3.46 µM
TGI [23]: 3.76 µM
TGI [24]: 4.39 µM
TGI [25]: 4.04 µM
TGI [26]: > 23.1 µM
TGI [27]: 3.12 µM
TGI [28]: 6.1 µM
TGI [29]: 5.51 µM
TGI [30]: 4.44 µM
TGI [31]: 2.21 µM
TGI [32]: 6.96 µM
TGI [33]: 11.6 µM
TGI [34]: 3.39 µM
TGI [35]: > 100 µM
TGI [36]: 2.69 µM
TGI [37]: 2.72 µM
TGI [38]: 23.7 µM
TGI [39]: 2.94 µM
TGI [40]: 2.62 µM
TGI [41]: 3.71 µM
TGI [42]: 14.6 µM
TGI [43]: 3.37 µM
TGI [44]: 3.62 µM
TGI [45]: 2.59 µM
TGI [46]: 3.25 µM
TGI [47]: 6.88 µM
TGI [48]: 6.77 µM
TGI [49]: 7.04 µM
TGI [50]: 20.6 µM
TGI [51]: 0.575 µM
TGI [52]: 4.49 µM
TGI [53]: 14.2 µM
TGI [54]: 3.59 µM
TGI [55]: 11.2 µM
TGI [56]: 1.48 µM
TGI [57]: 0.271 µM

C[Si](C)(C)/C=C/CCC(C=O)(CCCl)c1ccccc1 (stereo unspecified)
TGI [1]: 46.1 µM
TGI [2]: > 100 µM
TGI [3]: > 100 µM
TGI [4]: > 100 µM
TGI [5]: > 100 µM
TGI [6]: > 100 µM
TGI [8]: 85.4 µM
TGI [9]: 36 µM
TGI [10]: 96.6 µM
TGI [11]: > 100 µM
TGI [13]: > 100 µM
TGI [14]: 75.8 µM
TGI [15]: 80 µM
TGI [16]: > 100 µM
TGI [17]: 52.7 µM
TGI [58]: 53.8 µM
TGI [18]: 40.8 µM
TGI [20]: > 100 µM
TGI [21]: 36 µM
TGI [22]: > 100 µM
TGI [23]: 78.9 µM
TGI [24]: > 100 µM
TGI [26]: > 100 µM
TGI [27]: 38.1 µM
TGI [28]: > 100 µM
TGI [30]: 97.7 µM
TGI [59]: > 100 µM
TGI [31]: 54.6 µM
TGI [32]: 55.2 µM
TGI [33]: 57.2 µM
TGI [34]: 32.3 µM
TGI [35]: > 100 µM
TGI [36]: > 100 µM
TGI [37]: 87 µM
TGI [38]: > 100 µM
TGI [39]: 35.6 µM
TGI [40]: 86.6 µM
TGI [41]: 73.2 µM
TGI [42]: 33.9 µM
TGI [43]: 89.1 µM
TGI [44]: > 100 µM
TGI [45]: > 100 µM
TGI [46]: 55.5 µM
TGI [47]: 36.2 µM
TGI [48]: > 100 µM
TGI [49]: 33 µM
TGI [50]: 98.4 µM
TGI [51]: 54.9 µM
TGI [52]: > 100 µM
TGI [54]: > 100 µM
TGI [55]: 29.7 µM
TGI [56]: > 100 µM

O=S1(=O)NNC(=NCc2ccc(Cl)cc2)c2ccccc21
TGI [1]: > 100 µM
TGI [3]: > 100 µM
TGI [4]: > 100 µM
TGI [5]: > 100 µM
TGI [6]: > 100 µM
TGI [7]: > 100 µM
TGI [8]: > 100 µM
TGI [9]: > 100 µM
TGI [12]: > 100 µM
TGI [13]: > 100 µM
TGI [14]: > 100 µM
TGI [16]: > 100 µM
TGI [17]: > 100 µM
TGI [58]: > 100 µM
TGI [18]: > 100 µM
TGI [19]: > 100 µM
TGI [20]: > 100 µM
TGI [21]: > 100 µM
TGI [22]: > 100 µM
TGI [23]: > 100 µM
TGI [25]: > 100 µM
TGI [26]: > 100 µM
TGI [27]: > 100 µM
TGI [29]: > 100 µM
TGI [30]: > 100 µM
TGI [59]: > 100 µM
TGI [31]: > 100 µM
TGI [32]: > 100 µM
TGI [33]: > 100 µM
TGI [34]: > 100 µM
TGI [35]: > 100 µM
TGI [36]: > 100 µM
TGI [37]: > 100 µM
TGI [38]: > 100 µM
TGI [40]: > 100 µM
TGI [41]: > 100 µM
TGI [42]: > 100 µM
TGI [43]: > 100 µM
TGI [44]: > 100 µM
TGI [45]: > 100 µM
TGI [46]: > 100 µM
TGI [47]: > 100 µM
TGI [48]: > 100 µM
TGI [49]: > 100 µM
TGI [50]: > 100 µM
TGI [51]: > 100 µM
TGI [52]: > 100 µM
TGI [54]: > 100 µM
TGI [55]: > 100 µM
TGI [56]: > 100 µM

O=C1c2ccccc2C(=O)c2c(NCCCNCCO)ccc(NCCCNCCO)c21
TGI [1]: 29.8 µM
TGI [60]: 24.2 µM
TGI [2]: 40.6 µM
TGI [3]: 20.9 µM
TGI [4]: 16.1 µM
TGI [5]: 17.9 µM
TGI [6]: 23.1 µM
TGI [7]: 26.9 µM
TGI [8]: 18.9 µM
TGI [61]: 30.7 µM
TGI [9]: 15.9 µM
TGI [10]: 23.3 µM
TGI [62]: 22.6 µM
TGI [11]: 23.9 µM
TGI [12]: 12.3 µM
TGI [13]: 18.4 µM
TGI [14]: 46.8 µM
TGI [63]: 35.8 µM
TGI [15]: 67.2 µM
TGI [16]: 19.9 µM
TGI [17]: 27.9 µM
TGI [58]: 18.5 µM
TGI [18]: 16.6 µM
TGI [19]: 98.2 µM
TGI [20]: 26.3 µM
TGI [64]: 25.7 µM
TGI [21]: 27 µM
TGI [22]: 14.4 µM
TGI [23]: 30.8 µM
TGI [24]: 16.8 µM
TGI [25]: > 100 µM
TGI [26]: 33.8 µM
TGI [27]: 27.3 µM
TGI [28]: 58.7 µM
TGI [29]: 53.1 µM
TGI [65]: > 100 µM
TGI [30]: 44.7 µM
TGI [59]: 18.6 µM
TGI [31]: 18.2 µM
TGI [33]: 31.9 µM
TGI [34]: 16.8 µM
TGI [35]: 13.9 µM
TGI [37]: 31 µM
TGI [38]: 31.1 µM
TGI [39]: 15.5 µM
TGI [40]: 25.5 µM
TGI [66]: 34.4 µM
TGI [67]: 10.8 µM
TGI [41]: 25.5 µM
TGI [42]: 28.7 µM
TGI [68]: 20 µM
TGI [43]: 26.2 µM
TGI [44]: 16.7 µM
TGI [45]: > 49 µM
TGI [46]: 24.6 µM
TGI [47]: 14.9 µM
TGI [48]: 15.5 µM
TGI [69]: 68.2 µM
TGI [49]: 23.3 µM
TGI [50]: 47.3 µM
TGI [51]: 25.2 µM
TGI [52]: 15.3 µM
TGI [53]: 23.8 µM
TGI [54]: 28.4 µM
TGI [55]: 17.7 µM
TGI [56]: 17.6 µM
TGI [57]: 20.8 µM
